Measurements published in patent publication US20240150377A1, “MODULATORS OF CYSTIC FIBROSIS TRANSMEMBRANE CONDUCTANCE REGULATOR” (VERTEX PHARMACEUTICALS INCORPORATED, priority 2020, published 2024).
Read-outs that look alike come from different tables or passages of the source.

Target: CFTR (Homo sapiens, UniProt P13569)
Assay: Membrane potential dye, Enteroid Assay A
Assay type: cell-based
Details: for Ent. A Max Activity: chloride transport as % of triple combination control (Enteroid Assay A); for EC50: human enteroid cells, 18-24 hours, acute 10 μM forskolin and 300 nM ivacaftor, read-out: Ent. A EC50
Protocol: Base medium (ADF+++) consisted of Advanced DMEM/Ham's F12, 2 mM Glutamax, 10 mM HEPES, […] penicillin/streptomycin.
Intestinal enteroid maintenance medium (IEMM) consisted of ADF+++, 1× B27 supplement, 1× N2 supplement, 1.25 mM N-acetyl cysteine, 10 mM Nicotinamide, 50 ng/mL hEGF, 10 nM Gastrin, 1 μg/mL hR-spondin-1, 100 ng/mL hNoggin, TGF-b type 1 inhibitor A-83-01, 100 μg/mL Primocin, 10 μM P38 MAPK inhibitor SB202190.
Bath 1 Buffer consisted of 1 mM MgCl2, 160 mM NaCl, 4.5 mM KCl, 10 mM HEPES, 10 mM Glucose, 2 mM CaCl2).
Chloride Free Buffer consisted of 1 mM Magnesium Gluconate, 2 mM Calcium Gluconate, 4.5 mM Potassium Gluconate, 160 mM Sodium Gluconate, 10 mM HEPES, 10 mM Glucose.
BathI Dye Solution consisted of Bath 1 Buffer, 0.04% Pluronic F127, 20 μM Methyl Oxonol, 30 μM CaCCinh-A01, 30 μM Chicago Sky Blue.
Chloride Free Dye Solution consisted of Chloride Free Buffer, 0.04% Pluronic F127, 20 μM Methyl Oxonol, 30 μM CaCCinh-A01, 30 μM Chicago Sky Blue.
Chloride Free Dye Stimulation Solution consisted of Chloride Free Dye Solution, 10 μM forskolin, 100 μM IBMX, and 300 nM Compound III.
Human intestinal epithelial enteroid cells were obtained from the Hubrecht Institute for Developmental Biology and Stem Cell Research, Utrecht, The Netherlands and expanded in T-Flasks as previously described (Dekkers J F, Wiegerinck C L, de Jonge H R, Bronsveld I, Janssens H M, de Winter-de Groot K M, Brandsma A M, de Jong N W M, Bijvelds M J C, Scholte B J, Nieuwenhuis E E S, van den Brink S, Clevers H, van der Ent C K, Middendorp S and M Beekman J M. A functional CFTR assay using primary cystic fibrosis intestinal organoids. Nat Med. 2013 July;19(7):939-45.).
3. Enteroid Cell Harvesting and Seeding
Cells were recovered in cell recovery solution, collected by centrifugation at 650 rpm for 5 min at 4° C., resuspended in TrypLE and incubated for 5 min at 37° C. Cells were then collected by centrifugation at 650 rpm for 5 min at 4° C. and resuspended in IEMM containing 10 μM ROCK inhibitor (RI). The cell suspension was passed through a 40 μm cell strainer and resuspended at 1×10^6 cells/mL in IEMM containing 10 μM RI. Cells were seeded at 5000 cells/well into multi-well plates and incubated for overnight at 37° C., 95% humidity and 5% CO2 prior to assay.
4. Membrane Potential Dye, Enteroid Assay A
Enteroid cells were incubated with test compound in IEMM for 18-24 hours at 37° C., 95% humidity and 5% CO2. […] Briefly, cells were washed 5 times in Bath 1 Buffer. Bath 1 Dye Solution was added, and the cells were incubated for 25 min at room temperature. Following dye incubation, cells were washed 3 times in Chloride Free Dye Solution. Chloride transport was initiated by addition of Chloride Free Dye Stimulation Solution and the fluorescence signal was read for 15 min. […] Chloride transport was then expressed as a percentage of the chloride transport following treatment with 3 μM N-[(6-amino-2-pyridyl)sulfonyl]-6-(3-fluoro-5-isobutoxy-phenyl)-2-[(4S)-2,2,4-trimethylpyrrolidin-1-yl]pyridine-3-carboxamide, 3 μM (R)-1-(2,2-difluorobenzo[d][1,3]dioxol-5-yl)-N-(1-(2,3-dihydroxypropyl)-6-fluoro-2-(1-hydroxy-2-methylpropan-2-yl)-1H-indol-5-yl)cyclopropanecarboxamide and 300 nM acute N-[2,4-bis(1,1-dimethylethyl)-5-hydroxyphenyl]-1,4-dihydro-4-oxoquinoline-3-carboxamide triple combination control (% Activity).

Chain of CFTR (P13569 with tags, fused parts or gaps DEL508-508): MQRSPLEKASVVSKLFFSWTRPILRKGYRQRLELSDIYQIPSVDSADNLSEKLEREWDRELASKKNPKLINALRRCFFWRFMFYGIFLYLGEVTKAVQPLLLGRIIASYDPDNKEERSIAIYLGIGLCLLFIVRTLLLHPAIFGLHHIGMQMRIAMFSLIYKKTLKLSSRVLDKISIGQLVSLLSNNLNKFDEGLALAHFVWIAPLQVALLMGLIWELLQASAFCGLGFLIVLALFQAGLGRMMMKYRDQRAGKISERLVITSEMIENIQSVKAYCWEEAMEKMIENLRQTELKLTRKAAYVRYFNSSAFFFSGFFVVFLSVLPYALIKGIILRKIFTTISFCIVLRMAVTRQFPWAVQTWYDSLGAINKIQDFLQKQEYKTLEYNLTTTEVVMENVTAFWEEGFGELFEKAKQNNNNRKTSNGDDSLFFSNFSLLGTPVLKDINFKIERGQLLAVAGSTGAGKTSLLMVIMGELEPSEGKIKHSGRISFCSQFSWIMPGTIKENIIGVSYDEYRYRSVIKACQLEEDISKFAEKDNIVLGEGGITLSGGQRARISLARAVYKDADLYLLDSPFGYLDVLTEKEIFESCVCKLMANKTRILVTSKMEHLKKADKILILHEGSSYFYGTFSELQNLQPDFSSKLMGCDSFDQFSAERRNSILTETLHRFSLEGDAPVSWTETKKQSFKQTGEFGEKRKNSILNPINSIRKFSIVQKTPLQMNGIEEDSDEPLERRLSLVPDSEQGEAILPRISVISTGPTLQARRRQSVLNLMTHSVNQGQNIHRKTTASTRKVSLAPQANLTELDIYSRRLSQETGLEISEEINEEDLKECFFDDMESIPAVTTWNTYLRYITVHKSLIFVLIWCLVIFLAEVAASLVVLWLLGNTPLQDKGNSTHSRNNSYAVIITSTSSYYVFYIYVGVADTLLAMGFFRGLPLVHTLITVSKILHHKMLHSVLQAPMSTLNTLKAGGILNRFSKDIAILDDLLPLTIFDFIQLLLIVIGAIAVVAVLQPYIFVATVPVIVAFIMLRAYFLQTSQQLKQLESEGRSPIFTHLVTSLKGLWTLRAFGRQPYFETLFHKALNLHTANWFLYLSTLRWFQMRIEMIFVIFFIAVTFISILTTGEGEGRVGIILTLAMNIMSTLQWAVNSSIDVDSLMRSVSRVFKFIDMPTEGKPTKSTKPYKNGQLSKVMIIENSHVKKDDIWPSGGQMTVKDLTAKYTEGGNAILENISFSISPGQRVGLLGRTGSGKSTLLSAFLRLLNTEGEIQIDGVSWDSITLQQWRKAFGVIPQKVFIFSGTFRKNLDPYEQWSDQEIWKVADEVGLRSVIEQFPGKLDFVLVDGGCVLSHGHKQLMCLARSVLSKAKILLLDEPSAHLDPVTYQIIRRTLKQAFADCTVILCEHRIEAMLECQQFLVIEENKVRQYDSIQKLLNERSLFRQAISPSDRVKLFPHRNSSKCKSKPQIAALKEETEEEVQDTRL

Compound | Ent. A Max Activity (Table 7) | EC50 (Table 7) | Ent. A Max Activity (Table 6) | EC50 (Table 6)
COc1ccncc1CN1C(=O)c2cccc(c2)S(=O)(=O)Nc2nc(cc(-c3c(C)cccc3C)n2)OC[C@H]1CC(C)C [Compound 421] | – | – | +++ (+++ is >60%) | < 1000 nM
Cc1cccc(C)c1-c1cc2nc(n1)NS(=O)(=O)c1cccc(c1)C(=O)N(Cc1ccnn1C)[C@H](CC(C)C)CO2 [Compound 345] | – | – | +++ (+++ is >60%) | < 1000 nM
Cc1cccc(C)c1-c1cc2nc(n1)NS(=O)(=O)c1cccc(c1)C(=O)N(CC(C)C)C[C@H](Cc1ccccc1)O2 [Compound 863] | – | – | +++ (+++ is >60%) | < 1000 nM
Cc1cccc(C)c1-c1cc2nc(n1)NS(=O)(=O)c1cccc(c1)C(=O)N(CCC1CCOCC1)[C@H](CC1(C(F)(F)F)CC1)CO2 [Compound 681] | +++ (+++ is >60%) | < 1000 nM | – | –
Cc1cccc(C)c1-c1cc2nc(n1)NS(=O)(=O)c1cccc(c1)C(=O)N(CC1CCCC1)[C@H](CC(C)C)CO2 [Compound 350] | – | – | +++ (+++ is >60%) | < 1000 nM
Cc1cccc(C)c1-c1cc2nc(n1)NS(=O)(=O)c1cccc(c1)C(=O)N(Cc1ccc(C(=O)O)nc1)[C@H](CC(C)C)CO2 [Compound 94, 5-{[(11R)-6-(2,6-dimethylphenyl)-11-(2-methylpropyl)-2,2,13-trioxo-9-oxa-2λ^6-thia-3,5,12,19-tetraazatricyclo[12.3.1.14,8]nonadeca-1(18),4(19),5,7,14,16-hexaen-12-yl]methyl}pyridine-2-carboxylic acid] | +++ (+++ is >60%) | 1000 to 3000 nM | – | –
Cc1cccc(C)c1-c1cc2nc(n1)NS(=O)(=O)c1cccc(c1)C(=O)N(CCc1ccccc1)[C@H](CC(C)C)CO2 [Compound 355] | – | – | +++ (+++ is >60%) | < 1000 nM
Cc1cccc(C)c1-c1cc2nc(n1)NS(=O)(=O)c1cccc(c1)C(=O)N(CC1CCCN1C(=O)OC(C)(C)C)[C@H](CC(C)C)CO2 (stereo partly drawn) [Compound 346] | – | – | +++ (+++ is >60%) | < 1000 nM

The next lines start with the values.

Ent. A Max Activity (Table 7) | EC50 (Table 7) | Ent. A Max Activity (Table 6) | EC50 (Table 6) | Compound
+++ (+++ is >60%) | < 1000 nM | – | – | Cc1cccc(C)c1-c1cc2nc(n1)NS(=O)(=O)c1cccc(c1)C(=O)N(Cc1ccc(N3CC[C@@H](C)C3)nc1)[C@H](CC(C)C)CO2 [Compound 958]
++ (++ is 30-60%) | – | – | – | CCCC(=O)N1Cc2cccc(c2)S(=O)(=O)Nc2nc(cc(-c3c(C)cccc3C)n2)OC[C@H]1CC(C)C [Compound 1052]
++ (++ is 30-60%) | < 1000 nM | – | – | Cc1cccc(C)c1-c1cc2nc(n1)NS(=O)(=O)c1cccc(c1)CN(Cc1ccc3c(c1)OC(F)(F)O3)[C@H](CC(C)C)CO2 [Compound 1032]
+++ (+++ is >60%) | < 1000 nM | – | – | Cc1cccc(C)c1-c1cc2nc(n1)NS(=O)(=O)c1cccc(c1)CN(CC1CCOCC1)[C@H](CC(C)C)CO2 [Compound 1041]
– | – | +++ (+++ is >60%) | < 1000 nM | Cc1cccc(C)c1-c1cc2nc(n1)NS(=O)(=O)c1cccc(c1)C(=O)N(Cc1ccccc1)CCO2 [Compound 978]
+++ (+++ is >60%) | < 1000 nM | – | – | Cc1cccc(C)c1-c1cc2nc(n1)NS(=O)(=O)c1cccc(c1)C(=O)N(Cc1ccc(NCCN(C)C)nc1)[C@H](CC(C)C)CO2 [Compound 944]
– | – | +++ (+++ is >60%) | 1000 to 3000 nM | Cc1cccc(C)c1-c1cc2nc(n1)NS(=O)(=O)c1cccc(c1)C(=O)N(Cc1ccc(=O)[nH]c1)[C@H](CC(C)C)CO2 [Compound 1109]
– | – | +++ (+++ is >60%) | 3000 to 30000 nM | Cc1cccc(C)c1-c1cc2nc(n1)NS(=O)(=O)c1cccc(c1)C(=O)N(C)CC(CN(C)CCC(C)(C)C)O2 (stereo not drawn) [Compound 1014]
++ (++ is 30-60%) | < 1000 nM | – | – | Cc1cccc(C)c1-c1cc2nc(n1)NS(=O)(=O)c1cccc(c1)CN(Cc1ccc(Oc3ccccc3)cc1)[C@H](CC(C)C)CO2 [Compound 1030]
